Consider 8 compounds from patent publication US9096554B2, “Drugs for inhibiting p38 and uses thereof” (UNIVERSIDAD AUTÓNOMA DE MADRID, priority 2011, dated 2015).

A value given as a limit tells only on which side of the number the result lay.

Data set [1] relates to TNF-α secretion in response to bacterial LPS in human monocytes (THP-1). Put plainly: TNF-α secretion in response to LPS in THP-1 monocytes (ELISA). The data set is classed as cell-based. Particulars: for IC50: Homo sapiens, THP-1, LPS. How it is done:
(§1) This assay was performed to analyze the effect of the compounds of the invention on tumor necrosis factor alpha (TNF-α) secretion in response to bacterial lipopolysaccharide (LPS) in human monocytes (THP-1) and on the survival of said THP-1 monocytes in the presence of said compounds.
(§2) Briefly, cells from human monocytic cell line THP-1 (ATCC) at a density of about 10^6 cells/ml were stimulated with bacterial LPS (Sigma, Ref.# L2654) at a concentration of 1 mg/ml for 4 hours in the presence of the compounds of the invention dissolved in dimethyl sulfoxide (DMSO) at different concentrations (0.001, 0.01, 0.1, 1, 10 and 100 μM). The amount of TNF-α secreted into the medium in response to LPS was quantified by means of an ELISA assay (BioTrak, Ref.# RPN2758, GE-Amersham) following the manufacturer's instructions. Cell viability was quantified by means of flow cytometry FACS (FACScalibur, Becton Dickinson) after staining the treated cells with propidium iodide (1 mg/l) and quantifying the amount of positive cells for this stain (Software Cell Quest Pro).
These assays were performed to compare the effect of the compounds of the invention (compounds 1, 2 and 3) on tumor necrosis factor alpha (TNF-α) secretion in response to bacterial lipopolysaccharide (LPS) in human monocytes (THP-1) with respect to compounds that are structurally related but have a different substitution pattern in the phenyl ring. Conditions similar to those described in Example 7 were used.

The subject of a further data set is THP-1 monocytes. The data set can be described thus: THP-1 monocyte survival (propidium iodide, FACS). The data set is classed as cell-based, human. Particulars: dose causing the death of 50% of the cells; THP-1, propidium iodide FACS. On the procedure:
as §1, §2

In the next data set the target is p38 MAPK (Homo sapiens, UniProt Q16539). The data set can be described thus: Inhibition of MEF2A phosphorylation by p38 MAPK in vitro. Format: biochemical. As to conditions: MEF2A (10 nM) phosphorylation by active recombinant p38 (1 nM), 5 minutes. How it is done:
This assay was performed to quantify the effect of the compounds of the invention on MEF2-A phosphorylation by p38 MAPK in vitro.
To that end, briefly, active recombinant p38 (1 nM) and MEF2A (10 nM) were incubated with different concentrations of Compound 1 in a kinase buffer for 5 minutes. The proteins were resolved using SDS-PAGE and the activity of p38 was measured as phosphorylated MEF2A using anti-P-MEF2A (T312), a specific antibody. The mean of the results is graphically depicted as a percentage with respect to the controls (DMSO) of two independent experiments conducted in duplicate. For comparative purposes, Compound 5 at a concentration of 10 μM was used.
Finally, the in vitro mean inhibitory concentration (IC50) of this reaction for each assayed compound was determined as the measurement of the efficacy of a compound for inhibiting this biochemical function using a sufficient range of concentrations of each of these compounds (data not shown).

The next data set has as its system LysM-GRK2^f/+ mice. Put plainly: Carrageenan-induced hyperalgesia in LysM-GRK2f/+ mice, intrathecal injection. The data set is classed as in vivo. Particulars: 4 μg intrathecal. The text has this: To perform this assay, a previously described protocol was followed [Willemen H L, et al., Microglial/macrophage GRK2 determines duration of peripheral IL-1beta-induced hyperalgesia: contribution of spinal cord CX3CR1, p38 and IL-1 signaling. Pain. 2010 September; 150(3):550-60; and Eijkelkamp N, et al., (http://www.ncbi.nlm.nih.gov/pubmed/20147541; J. Neurosci. 2010 Feb. 10; 30(6):2138-49). Briefly, eight female LysM-GRK2^f/+ mice (2 mice per group, 4 paws for each condition) were subjected to an intraplantar injection of carrageenan (Sigma-Aldrich, […] of a 1% solution in saline) for inducing inflammatory-type hyperalgesia in the extremities. Seven (7) days after injecting carrageenan, the paw withdrawal latency time when the paw is in contact with heat was determined as an indication of inflammatory-type pain at time 0 (T=0). The carrier (20% DMSO) or Compound 1 at different concentrations (0.15, 0.5 and 1.5 μg in 5 μL of 20% DMSO) was then intrathecally injected.
The paw withdrawal latency periods were then measured at different times (0.5, 1, 2, 4, 6, 8, 10, 24, 48 and 96 hours after injecting the compound).
To evaluate the effect of Compound 5 on hyperalgesia induced in mice, a protocol similar to that described for Compound 1 in Example 9A was followed, but in this protocol, the known p38 MAPK inhibitor SB239063 (5 μg in 5 μL of 20% DMSO), the carrier (20% DMSO), or Compound 5 (4 μg in 5 μL of 20% DMSO) was intrathecally injected 7 days after injecting the carrageenan.

Setting [2] is: Table 3, comparison with positional isomers.

Chain of p38 MAPK (Q16539 whole entry): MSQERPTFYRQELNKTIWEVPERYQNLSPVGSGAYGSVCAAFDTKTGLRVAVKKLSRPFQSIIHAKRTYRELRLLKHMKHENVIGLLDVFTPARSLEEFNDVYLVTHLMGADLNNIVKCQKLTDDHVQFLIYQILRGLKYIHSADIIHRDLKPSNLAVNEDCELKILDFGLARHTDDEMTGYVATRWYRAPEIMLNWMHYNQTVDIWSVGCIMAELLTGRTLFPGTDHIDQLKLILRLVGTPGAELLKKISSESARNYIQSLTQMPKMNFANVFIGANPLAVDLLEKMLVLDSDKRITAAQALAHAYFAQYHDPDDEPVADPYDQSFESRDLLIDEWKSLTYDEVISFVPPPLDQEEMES

As usually defined, the IC50 is the midpoint of a concentration-inhibition curve. In turn, `Cc1ccc(Nc2ccc([N+](=O)[O-])c3nonc23)c(Cl)c1` [Compound 8, reference compound] came in with an IC50 in data set [1] (setting [2]) of 29 ± 1.41 µM. `COc1ccc(Cl)cc1C(=O)Nc1ccc(Cl)c2nonc12` [Compound 4, 5-chloro-N-(7-chloro-benzo[1,2,5]oxadiazol-4-yl)-2-methoxy-benzamide] returned an IC50 in data set [1] (Table 2, TNF-α ELISA) of 3.2 µM. With `Cc1ccc(C)c(Nc2cc(Cl)c3nonc3c2[N+](=O)[O-])c1` [Compound 6, (7-chloro-4-nitro-benzo[1,2,5]oxadiazol-5-yl)-(2,5-dimethyl-phenyl)-amine], the IC50 in data set [1] (Table 2, TNF-α ELISA) came out at 3 µM.

Regarding `O=[N+]([O-])c1ccc(Nc2cc(Cl)ccc2O)c2nonc12` [Compound 2, 4-chloro-2-(7-nitro-benzo[1,2,5]oxadiazol-4-ylamino)-phenol], it took 3.2 ± 0.25 µM to reach half-maximal inhibition in data set [1] (Table 2, TNF-α ELISA) (IC50). In addition, the “activity in TNF-α secretion inhibition compared with comparative Compounds 10-14” value in data set [1] (human monocytes, FIG. 8) is “greater activity”. The “TD50 (μM)” value in the data set on THP-1 monocytes is listed as >100 μM (n = 2). With `O=[N+]([O-])c1ccc(Nc2cccc(F)c2F)c2nonc12` [Compound 9, reference compound], the IC50 in data set [1] (Table 4, comparison with positional isomer) was 5.25 ± 0.35 µM. Besides, the “capacity for reducing TNF-α secretion compared with Compound 3” value in data set [1] (human monocytes, FIG. 7) is listed as “lower capacity”.

As for `Cc1ccc(Cl)cc1Nc1cc(Cl)c2nonc2c1[N+](=O)[O-]` [Compound 5, (5-chloro-2-methyl-phenyl)-(7-chloro-4-nitro-benzo[1,2,5]oxadiazol-5-yl)-amine], the IC50 in data set [1] (Table 2, TNF-α ELISA) is 0.3 µM; on p38 MAPK, 10 µM. Also, in the data set with LysM-GRK2^f/+ mice, the “time after administering at which the decrease in hyperalgesia can be detected” value was found to be 8 days. Further, the “hyperalgesia (paw withdrawal latency to heat)” value in the data set on LysM-GRK2^f/+ mice (7 days after carrageenan, FIG. 12) is listed as “decrease in hyperalgesia”. Besides, the “TD50 (μM)” value in the data set on THP-1 monocytes is given as >35 μM (n = 3). The compound `Cc1ccc(Nc2ccc([N+](=O)[O-])c3nonc23)cc1Cl` [Compound 7, reference compound] showed a 50% inhibitory concentration (IC50) in data set [1] (setting [2]) of 17 ± 1.41 µM. In the case of `O=[N+]([O-])c1ccc(Nc2cc(F)ccc2F)c2nonc12` [Compound 3, (2,5-difluoro-phenyl)-(7-nitro-benzo[1,2,5]oxadiazol-4-yl)-amine], inhibition in data set [1] (Table 2, TNF-α ELISA) was half-maximal at 2.9 ± 0.41 µM (IC50).
